18 molecules from PubChem BioAssay AID200 (DTP/NCI, 2004) can be followed below.

SMILES strings stand for the structures. Where “and” joins values, the source holds several entries; their conditions need not be identical. Identical values can stand only once. Inconclusive results and toxic doses are left out.

This experiment concerns B6C3F1 mice, B16 melanoma ip, median survival T/C. The experiment is described as follows: NCI In Vivo Anticancer Drug Screen. Data for tumor model B16 Melanoma (intraperitoneal) in B6C3F1 mice. The following applies: endpoint: median survival time, higher = longer survival. The method, then:
The antitumor activity of compounds was measured in mice bearing transplantable tumors. Survival or tumor size were measured and the results are expressed as the measurement made in the treated group (T) divided by the measurement made in the vehicle treated control group (C). The tumor model used in this assay is B16 Melanoma (intraperitoneal) in B6C3F1 mice

Where [1] appears, read: dose: 12.5 mg/kg/injection, schedule: Q01DX009 (ip), vehicle: Klucel (hydroxypropylcellulose) (HPC).
[2] abbreviates: dose: 25.0 mg/kg/injection, schedule: Q01DX009 (ip), vehicle: Klucel (hydroxypropylcellulose) (HPC).
Setting [3] is: dose: 50.0 mg/kg/injection, schedule: Q01DX009 (ip), vehicle: Klucel (hydroxypropylcellulose) (HPC).
Where [4] appears, read: dose: 100.0 mg/kg/injection, schedule: Q01DX009 (ip), vehicle: saline with Tween-80.
[5] abbreviates: dose: 200.0 mg/kg/injection, schedule: Q01DX009 (ip), vehicle: saline with Tween-80.
Setting [6] is: dose: 400.0 mg/kg/injection, schedule: Q01DX009 (ip), vehicle: saline with Tween-80.
[7] abbreviates: dose: 25.0 mg/kg/injection, schedule: Q01DX009 (ip), vehicle: saline.
Where [8] appears, read: dose: 100.0 mg/kg/injection, schedule: Q01DX009 (ip), vehicle: saline.
Setting [9] is: dose: 200.0 mg/kg/injection, schedule: Q01DX009 (ip), vehicle: saline.
Setting [10] is: dose: 100.0 mg/kg/injection, schedule: Q01DX009 (ip), vehicle: Klucel (hydroxypropylcellulose) (HPC).
Where [11] appears, read: dose: 12.5 mg/kg/injection, schedule: Q01DX009 (ip), vehicle: saline with Tween-80.
[12] abbreviates: dose: 25.0 mg/kg/injection, schedule: Q01DX009 (ip), vehicle: saline with Tween-80.
Setting [13] is: dose: 50.0 mg/kg/injection, schedule: Q01DX009 (ip), vehicle: saline with Tween-80.

For the molecule `CCCCCn1c(C)cc(/C=C\c2ccc3cc(C)ccc3[n+]2C)c1C`, the T/C was 93 % of control (dose: 39.0 micrograms/kg/injection, schedule: Q01DX009 (ip), vehicle: Klucel (hydroxypropylcellulose) (HPC)); 95 % of control (dose: 78.0 micrograms/kg/injection, schedule: Q01DX009 (ip), vehicle: Klucel (hydroxypropylcellulose) (HPC)); 100 % of control (dose: 156.0 micrograms/kg/injection, schedule: Q01DX009 (ip), vehicle: Klucel (hydroxypropylcellulose) (HPC)); 100 % of control (dose: 312.0 micrograms/kg/injection, schedule: Q01DX009 (ip), vehicle: Klucel (hydroxypropylcellulose) (HPC)); 96 % of control (dose: 625.0 micrograms/kg/injection, schedule: Q01DX009 (ip), vehicle: Klucel (hydroxypropylcellulose) (HPC)).
On to `CNC(=S)N/N=C(/C)CCc1c(C)nn(C(=S)NC)c1C`, for which the T/C is 103 % of control under setting [1], 106 % of control under setting [2] and 102 % of control under setting [3].
In the case of `COc1cccc2c1C(=O)c1c(O)c3c(c(O)c1C2=O)C[C@@](O)(C(C)=O)C[C@@H]3OC1CC(N2CCOCC2)C(O)C(C)O1` (stereo partly specified), the T/C is 120 % of control (dose: 0.06 mg/kg/injection, schedule: Q01DX001 (ip), vehicle: water); 123 % of control (dose: 0.12 mg/kg/injection, schedule: Q01DX001 (ip), vehicle: water); 113 % of control (dose: 62.5 micrograms/kg/injection, schedule: Q01DX001 (ip), vehicle: water); 122 % of control (dose: 125.0 micrograms/kg/injection, schedule: Q01DX001 (ip), vehicle: water).
`CCOC(=O)c1c(C)c(C(=O)OCC)n(C)c1C=O`: the T/C reads like this: under setting [4], 95 % of control; under setting [5], 94 % of control; under setting [6], 92 % of control.
On to `C1OC1CO[C@@H]1CO[C@H]2[C@@H]1OC[C@H]2OCC1CO1` (stereo partly specified), for which the T/C reads like this: (dose: 12.5 mg/kg/injection, schedule: Q01DX009 (ip), vehicle: saline) 111 % of control; (dose: 12.5 mg/kg/injection, schedule: Q01DX009 (ip), vehicle: suspension in saline) 111 % of control; under setting [7], 115 % of control; (dose: 25.0 mg/kg/injection, schedule: Q01DX009 (ip), vehicle: suspension in saline) 111 % of control; under setting [8], 171 % of control and 182 % of control; (dose: 100.0 mg/kg/injection, schedule: Q01DX009 (ip), vehicle: suspension in saline) 153 % of control. Also, the T/C is, setting by setting: under setting [9], 220 % of control and 235 % of control; (dose: 200.0 mg/kg/injection, schedule: Q01DX009 (ip), vehicle: suspension in saline) 205 % of control.
In the case of `O=C(NC(Cc1c[nH]c2ccccc12)C(=O)O)OCC1c2ccccc2-c2ccccc21` (stereo unspecified), the T/C by setting is: under setting [2], 102 % of control; under setting [3], 92 % of control; under setting [10], 103 % of control.
Turning to `COc1cc(C2c3cc4c(cc3C(OC3CCCCO3)C3COC(=O)C23)OCO4)cc(OC)c1OC` (stereo unspecified), the T/C (dose: 1.56 mg/kg/injection, schedule: Q01DX009 (ip), vehicle: Klucel (hydroxypropylcellulose) (HPC)) was 93 % of control and the T/C (dose: 3.12 mg/kg/injection, schedule: Q01DX009 (ip), vehicle: Klucel (hydroxypropylcellulose) (HPC)) was 98 % of control.
As to `O=c1oc2c(O)c(O)cc3c(=O)oc4c(O)c(O)cc1c4c23`, the T/C was 116 % of control (dose: 6.25 mg/kg/injection, schedule: Q01DX009 (ip), vehicle: Klucel (hydroxypropylcellulose) (HPC)); 117 % of control under setting [1]; 123 % of control under setting [11]; 114 % of control and 120 % of control under setting [2]; 113 % of control under setting [12]; 114 % of control and 87 % of control under setting [3]. Also, the T/C was 114 % of control under setting [13]; 108 % of control and 88 % of control under setting [10]; 105 % of control under setting [4]; 116 % of control (dose: 200.0 mg/kg/injection, schedule: Q01DX009 (ip), vehicle: Klucel (hydroxypropylcellulose) (HPC)); 115 % of control under setting [5]; 119 % of control under setting [6].
`O=c1cc(-c2ccccc2)nc(N[N+](=O)[O-])[nH]1`: the T/C by setting is: (dose: 11.0 mg/kg/injection, schedule: Q01DX009 (ip), vehicle: Klucel (hydroxypropylcellulose) (HPC)) 91 % of control; (dose: 22.0 mg/kg/injection, schedule: Q01DX009 (ip), vehicle: Klucel (hydroxypropylcellulose) (HPC)) 100 % of control; (dose: 44.0 mg/kg/injection, schedule: Q01DX009 (ip), vehicle: Klucel (hydroxypropylcellulose) (HPC)) 105 % of control; (dose: 88.0 mg/kg/injection, schedule: Q01DX009 (ip), vehicle: Klucel (hydroxypropylcellulose) (HPC)) 88 % of control.
Turning to `O=C1NCC(Br)C(=O)N1` (stereo unspecified), the T/C is 90 % of control (dose: 6.25 mg/kg/injection, schedule: Q01DX009 (ip), vehicle: saline + Tween-80 + alcohol); 99 % of control and 101 % of control (dose: 12.5 mg/kg/injection, schedule: Q01DX009 (ip), vehicle: saline + Tween-80 + alcohol); 102 % of control under setting [11]; 100 % of control and 106 % of control (dose: 25.0 mg/kg/injection, schedule: Q01DX009 (ip), vehicle: saline + Tween-80 + alcohol); 94 % of control and 105 % of control under setting [12]; 114 % of control and 105 % of control (dose: 50.0 mg/kg/injection, schedule: Q01DX009 (ip), vehicle: saline + Tween-80 + alcohol). In addition, the T/C under setting [13] is 114 % of control; the T/C (dose: 100.0 mg/kg/injection, schedule: Q01DX009 (ip), vehicle: saline + Tween-80 + alcohol) is 109 % of control and 100 % of control; the T/C under setting [4] is 116 % of control; the T/C (dose: 200.0 mg/kg/injection, schedule: Q01DX009 (ip), vehicle: saline + Tween-80 + alcohol) was 96 % of control.
Regarding `COc1ccc2c(c1O)-c1cccc3c1[C@@H](C2)N(CCCl)CC3`, the T/C is, setting by setting: (dose: 1.0 mg/kg/injection, schedule: Q01DX009 (ip), vehicle: Klucel (hydroxypropylcellulose) (HPC)) 91 % of control and 100 % of control; (dose: 2.0 mg/kg/injection, schedule: Q01DX009 (ip), vehicle: Klucel (hydroxypropylcellulose) (HPC)) 100 % of control; (dose: 4.0 mg/kg/injection, schedule: Q01DX009 (ip), vehicle: Klucel (hydroxypropylcellulose) (HPC)) 97 % of control and 106 % of control; (dose: 8.0 mg/kg/injection, schedule: Q01DX009 (ip), vehicle: Klucel (hydroxypropylcellulose) (HPC)) 98 % of control and 102 % of control.
In the case of `CN(C)N=Nc1ccnc2ccc(Br)cc12`, the T/C is, setting by setting: (dose: 3.13 mg/kg/injection, schedule: Q01DX009 (ip), vehicle: other) 109 % of control; (dose: 6.25 mg/kg/injection, schedule: Q01DX009 (ip), vehicle: other) 114 % of control; (dose: 12.5 mg/kg/injection, schedule: Q01DX009 (ip), vehicle: other) 110 % of control; (dose: 25.0 mg/kg/injection, schedule: Q01DX009 (ip), vehicle: other) 114 % of control; (dose: 50.0 mg/kg/injection, schedule: Q01DX009 (ip), vehicle: other) 115 % of control.
Regarding `CNC=O`, the T/C reads like this: under setting [8], 101 % of control; under setting [9], 108 % of control; (dose: 400.0 mg/kg/injection, schedule: Q01DX009 (ip), vehicle: saline) 95 % of control.
On to `NC(CCCNc1ccc(O)cc1)C(=O)O` (stereo unspecified), for which the T/C (dose: 75.0 mg/kg/injection, schedule: Q01DX009 (ip), vehicle: saline) is 122 % of control; the T/C under setting [8] was 98 % of control; the T/C (dose: 150.0 mg/kg/injection, schedule: Q01DX009 (ip), vehicle: saline) was 106 % of control.
Take `O=C(Oc1cc(Cl)ccc1Cl)c1ccccc1`: the T/C was 96 % of control under setting [13], 97 % of control under setting [4], 91 % of control under setting [5] and 87 % of control under setting [6].
Regarding `C=C(C(=O)O)C(N)C(=O)O` (stereo unspecified), the T/C runs as follows: under setting [7], 97 % of control; (dose: 50.0 mg/kg/injection, schedule: Q01DX009 (ip), vehicle: saline) 106 % of control; under setting [8], 106 % of control; under setting [9], 90 % of control.
In the case of `O=[N+]([O-])c1ccc(-n2[nH]nnc2=S)cc1`, the T/C was 100 % of control and 101 % of control under setting [11]; 101 % of control and 103 % of control under setting [12]; 95 % of control under setting [13]; 93 % of control and 100 % of control under setting [4]; 88 % of control and 92 % of control under setting [5].
Regarding `C/C(=N\NC(N)=O)c1cccc(/C(C)=N/NC(N)=O)n1`, the T/C is 93 % of control (dose: 6.25 mg/kg/injection, schedule: Q01DX009 (ip), vehicle: saline with Tween-80); 96 % of control under setting [11]; 87 % of control under setting [12]; 90 % of control under setting [13].
